# Assay results from patent US11951131B2, “Anti-SLAMF7 chimeric antigen receptors” (The United States of America, as represented by the …, priority 2018, dated 2024).
# Legend:
# Format in all cases: cell-based, human
# TC71 = experiment: IFN-gamma ELISA, CAR T cells with TC71 target cells; details: Table B-2
# Text: (§1) MM.1S is a SLAMF7^+ multiple myeloma cell line that was obtained from American Type Culture Collection (ATCC). A549 is a BCMA-negative lung cancer cell line (ATCC). TC71 is a BCMA-negative sarcoma cell line. CCRF-CEM, 293T, and A549 are SLAMF7-negative cell lines (ATCC). COL0207, HepG2, U251, Panc10.05, and TC71 are […] that were kind gifts from Dr. Steven Rosenberg, National Cancer Institute. SLAMF7-K562 are K562 cells (ATCC) which were transduced with the gene for full-length SLAMF7. SLAMF7-RPMI are RPMI8226 cells (ATCC) which were transduced with the gene for full-length SLAMF7. NGFR-K562 are K562 cells which were transduced with the gene for low-affinity nerve growth factor (Kochenderfer et al., J. Immunother., 32(7): 689-702 (2009)). All of the human samples mentioned were obtained from patients enrolled in IRB-approved clinical trials at the National Cancer Institute.
# (§2) One-hundred thousand SLAMF7^+ or SLAMF7-negative target cells were combined with 100,000 CAR-transduced T cells in duplicate wells of a 96 well round bottom plate in 200 µL of AIM V™ medium (Invitrogen) plus 5% human serum. […]
# (§3) The T cells columns indicate whether T cells were transduced with Luc90-CD828Z, Luc63-CD828Z, or were untransduced. The % CAR^+ in Table B-1 was determined by staining the T cells with Protein L. Except for the % CAR^+ column, all values are pg/mL of IFN-gamma. […]
# H929 = experiment: IFN-gamma ELISA, CAR T cells with H929 target cells; details: Table C
# Method: (§4) One-hundred thousand SLAMF7^+ or SLAMF7-negative target cells were combined with 100,000 CAR-transduced T cells in duplicate wells of a 96 well round bottom plate in 200 µL of AIM V™ medium (Invitrogen) plus 5% human serum. The plates were incubated at 37° C. for 18-20 hours. Following the incubation, ELISAs (enzyme-linked immunosorbent assays) for IFNγ were performed by using standard methods.
# (§5) All values are pg/mL of IFN-gamma. T cells that were either untransduced or transduced with one of the indicated CARs were cultured with target cells overnight, and a standard IFN-gamma ELISA was performed on the culture supernatant.
# SLAMF7-RPMI = experiment: IFN-gamma ELISA, CAR T cells cultured overnight with SLAMF7-RPMI target cells
# Text: as §1, §4
# The T cells columns indicate whether T cells were transduced with Luc90-CD828Z, Luc63-CD828Z, or were untransduced. The % CAR^+ in Table B-1 was determined by staining the T cells with Protein L. Except for the % CAR^+ column, all values are pg/mL of IFN-gamma. T cells that were either untransduced or transduced with one of the indicated CARs were cultured with target cells overnight and a standard IFN-gamma ELISA was performed on the culture supernatant.
# as §5
# The values in the cells are pg/mL of IFN-gamma. T cells that were either untransduced or transduced with one of the indicated CARs were cultured with target cells overnight, and a standard IFN-gamma ELISA was performed on the culture supernatant. The concentrations of 0, 50, or 200 ng/mL at the top of each column indicates the concentration of soluble SLAMF7 added to all T cell plus target cell overnight cultures in that column. The soluble SLAMF7 was added at the beginning of the overnight culture.
# SLAMF7^+ MM.1S cells = experiment: CD107a degranulation assay; details: CD4^+ and CD8^+ T cells, cultured with MM.1S versus NGFR-K562, 4 hours
# Method: For each T cell culture that was tested, two tubes were prepared. One tube contained MM.1S cells, and the other tube contained NGFR-K562 cells. Both tubes contained CAR-transduced T cells, 1 ml of AIM V™ medium (Invitrogen) plus 5% human AB serum, a titrated concentration of an anti-CD107a antibody (eBioscience, clone eBioH4A3, ThermoFisher Scientific), and 1 μL of GOLGISTOP™ (a protein transport inhibitor containing monensin, BD Biosciences). All tubes were incubated at 37° C. for 4 hours and then stained for CD3, CD4, and CD8.
# A549 = experiment: IFN-gamma ELISA, CAR T cells with A549 target cells; details: Table B-2; SLAMF7-negative
# Text: as §1, §2, §3
# U251 = experiment: IFN-gamma ELISA, CAR T cells with U251 target cells; details: Table B-2
# Text: as §1, §2, §3
# COLO 205 = experiment: IFN-gamma ELISA, CAR T cells with COLO 205 target cells; details: Table B-1
# Text: as §1, §2, §3
substance,measurement,setting,value
"Luc90-CD828Z: anti-SLAMF7 CAR (SEQ ID NO: 27): murine Luc90 scFv, human CD8a hinge and TM, CD28 and CD3ζ domains; tested as transduced T cells","IFN-gamma, target cells TC71",TC71,82 pg/mL
same,"IFN-gamma, target cells H929",H929,531 pg/mL
same,"IFN-gamma, target cells SLAMF7-RPMI","SLAMF7-RPMI; Table B-1, overnight culture, ELISA on supernatant",21293 pg/mL
same,"IFN-gamma, target cells SLAMF7-RPMI8226","SLAMF7-RPMI; Table C, overnight culture",20832 pg/mL
same,"IFN-gamma, target cells SLAMF7 RPMI 0 ng/ml","SLAMF7-RPMI; Table D, soluble SLAMF7 added 0 ng/ml",23538 pg/mL
same,"IFN-gamma, target cells SLAMF7 RPMI 50 ng/ml","SLAMF7-RPMI; Table D, soluble SLAMF7 added 50 ng/ml",23.315 ng/mL
same,"IFN-gamma, target cells CD319 RPMI 200 ng/ml","SLAMF7-RPMI; Table D, soluble SLAMF7 added 200 ng/ml",21301 pg/mL
same,CD107a upregulation (degranulation),SLAMF7^+ MM.1S cells,degranulated
same,"IFN-gamma, target cells A549",A549,79 pg/mL
same,"IFN-gamma, target cells U251",U251,27 pg/mL
same,"IFN-gamma, target cells COLO 205",COLO 205,19 pg/mL
